Measured values reported in patent US20260355274A1 (Onkure, Inc., priority 2022, published 2026).

What was measured:
Assay type in all cases: biochemical
HDAC 6 = HDAC 6 (Homo sapiens, UniProt Q9UBN7); experiment: enzymatic inhibition of HDAC 6; details: HDAC 6, Class IIb; read-out: IC50
Excerpt: (§1) The mammalian HDACs can be divided into four classes depending on their sequence homology, sub-cellular distribution and catalytic activity. Class I, Il and IV HDACs have a Zn^2+ cofactor in the catalytic site. Class III HDACs contain sirtuins 1-7 and are NAD^+-dependent. Class I (HDACs 1, 2, 3 and 8) share the same homology as Rpd3 and are preliminarily distributed in the nucleus of normal cells. Class II HDACs can be subdivided into class IIa HDACs and class Ilb HDACs. Class IIa enzymes (HDAC 4, 5, 7 and 9) shuttle between the nucleus and cytoplasm and are located in specific tissues such as the brain, heart, and muscle. Class IIb (HDACs 6 and 10) are chiefly located in the cytoplasm.

HDAC 4 = HDAC 4 (Homo sapiens, UniProt P56524); experiment: enzymatic inhibition of HDAC 4; details: HDAC 4, Class IIa; read-out: IC50
Excerpt: as §1

HDAC 9 = HDAC 9 (Homo sapiens, UniProt Q9UKV0); experiment: enzymatic inhibition of HDAC 9; details: HDAC 9, Class IIa; read-out: IC50
Excerpt: as §1

HDAC 5 = HDAC 5 (Homo sapiens, UniProt Q9UQL6); experiment: enzymatic inhibition of HDAC 5; details: HDAC 5, Class IIa; read-out: IC50
Excerpt: as §1

HDAC 2 = HDAC 2 (Homo sapiens, UniProt Q92769); experiment: enzymatic inhibition of HDAC 2; details: HDAC 2, Class I
Excerpt: as §1

HDAC 8 = HDAC 8 (Homo sapiens, UniProt Q9BY41); experiment: enzymatic inhibition of HDAC 8; details: HDAC 8, Class I; read-out: IC50
Excerpt: as §1

HDAC 11 = HDAC 11 (Homo sapiens, UniProt Q96DB2); experiment: enzymatic inhibition of HDAC 11; details: HDAC 11, Class IV
Excerpt: as §1

HDAC 1 = HDAC 1 (Homo sapiens, UniProt Q13547); experiment: enzymatic inhibition of HDAC 1; details: HDAC 1, Class I
Excerpt: as §1

Class I HDAC = experiment: enzymatic inhibition of Class I HDACs (summary); details: in words
Excerpt: as §1

HDAC 7 = HDAC 7 (Homo sapiens, UniProt Q8WUI4); experiment: enzymatic inhibition of HDAC 7; details: HDAC 7, Class IIa; read-out: IC50
Excerpt: as §1

HDAC 3 = HDAC 3 (Homo sapiens, UniProt O15379); experiment: enzymatic inhibition of HDAC 3; details: HDAC 3, Class I
Excerpt: as §1

HDAC 10 = HDAC 10 (Homo sapiens, UniProt Q969S8); experiment: enzymatic inhibition of HDAC 10; details: HDAC 10, Class IIb
Excerpt: as §1

Chain of HDAC 4 (P56524 whole entry): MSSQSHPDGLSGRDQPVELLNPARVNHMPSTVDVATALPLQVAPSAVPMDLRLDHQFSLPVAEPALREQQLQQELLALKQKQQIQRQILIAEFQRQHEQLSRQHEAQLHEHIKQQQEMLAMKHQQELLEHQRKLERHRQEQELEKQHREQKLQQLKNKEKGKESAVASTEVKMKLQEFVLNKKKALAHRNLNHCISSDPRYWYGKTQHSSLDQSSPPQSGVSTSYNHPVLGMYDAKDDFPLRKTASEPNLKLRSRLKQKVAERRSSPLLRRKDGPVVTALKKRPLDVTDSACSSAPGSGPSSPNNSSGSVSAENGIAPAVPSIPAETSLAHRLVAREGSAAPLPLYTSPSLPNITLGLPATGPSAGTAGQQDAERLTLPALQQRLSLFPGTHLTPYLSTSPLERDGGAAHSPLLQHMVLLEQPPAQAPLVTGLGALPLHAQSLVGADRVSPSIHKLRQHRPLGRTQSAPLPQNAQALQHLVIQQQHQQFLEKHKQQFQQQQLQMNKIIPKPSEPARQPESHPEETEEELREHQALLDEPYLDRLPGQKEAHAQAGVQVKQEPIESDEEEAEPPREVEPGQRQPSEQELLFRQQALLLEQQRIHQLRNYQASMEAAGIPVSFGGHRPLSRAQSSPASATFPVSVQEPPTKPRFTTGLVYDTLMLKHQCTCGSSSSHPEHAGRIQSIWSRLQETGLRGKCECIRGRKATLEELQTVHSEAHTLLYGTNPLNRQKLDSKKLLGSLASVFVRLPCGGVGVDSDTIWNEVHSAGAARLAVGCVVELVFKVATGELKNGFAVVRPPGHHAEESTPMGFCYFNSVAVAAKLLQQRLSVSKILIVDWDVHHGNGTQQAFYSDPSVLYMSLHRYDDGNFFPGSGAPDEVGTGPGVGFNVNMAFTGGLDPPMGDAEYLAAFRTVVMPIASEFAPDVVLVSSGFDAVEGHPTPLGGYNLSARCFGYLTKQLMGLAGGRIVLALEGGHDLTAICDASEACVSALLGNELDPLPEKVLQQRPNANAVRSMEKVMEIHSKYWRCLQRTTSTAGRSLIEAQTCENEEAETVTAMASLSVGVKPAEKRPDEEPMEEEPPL
Chain of HDAC 5 (Q9UQL6 whole entry): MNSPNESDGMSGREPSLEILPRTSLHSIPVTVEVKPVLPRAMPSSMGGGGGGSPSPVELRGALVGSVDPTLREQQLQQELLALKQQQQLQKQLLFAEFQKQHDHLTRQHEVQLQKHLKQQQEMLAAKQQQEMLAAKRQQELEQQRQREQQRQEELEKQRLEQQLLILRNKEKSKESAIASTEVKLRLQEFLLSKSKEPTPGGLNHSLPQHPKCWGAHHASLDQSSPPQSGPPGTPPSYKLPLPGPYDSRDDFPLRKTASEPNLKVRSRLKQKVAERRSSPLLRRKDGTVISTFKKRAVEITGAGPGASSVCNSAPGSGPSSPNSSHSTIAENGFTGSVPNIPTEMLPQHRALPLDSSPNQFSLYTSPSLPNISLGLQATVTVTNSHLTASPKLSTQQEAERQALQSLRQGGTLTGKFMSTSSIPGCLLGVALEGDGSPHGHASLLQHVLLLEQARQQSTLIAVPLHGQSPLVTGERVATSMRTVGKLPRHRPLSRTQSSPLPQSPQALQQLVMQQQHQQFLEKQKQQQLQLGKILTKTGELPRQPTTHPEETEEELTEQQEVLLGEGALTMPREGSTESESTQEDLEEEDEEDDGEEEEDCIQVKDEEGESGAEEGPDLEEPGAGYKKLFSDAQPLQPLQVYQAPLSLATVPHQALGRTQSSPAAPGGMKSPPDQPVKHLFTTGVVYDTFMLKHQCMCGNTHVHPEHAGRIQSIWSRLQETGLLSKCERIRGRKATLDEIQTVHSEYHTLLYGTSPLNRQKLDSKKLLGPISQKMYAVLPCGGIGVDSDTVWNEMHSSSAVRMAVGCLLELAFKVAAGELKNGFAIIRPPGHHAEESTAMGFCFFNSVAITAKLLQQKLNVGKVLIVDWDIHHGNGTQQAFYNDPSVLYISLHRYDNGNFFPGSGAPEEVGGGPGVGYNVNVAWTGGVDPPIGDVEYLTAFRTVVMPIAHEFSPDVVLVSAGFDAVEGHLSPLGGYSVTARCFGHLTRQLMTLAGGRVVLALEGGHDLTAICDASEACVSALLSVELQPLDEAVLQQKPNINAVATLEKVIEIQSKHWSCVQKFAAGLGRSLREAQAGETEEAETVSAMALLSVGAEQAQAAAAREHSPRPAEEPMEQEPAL
Chain of HDAC 9 (Q9UKV0 whole entry): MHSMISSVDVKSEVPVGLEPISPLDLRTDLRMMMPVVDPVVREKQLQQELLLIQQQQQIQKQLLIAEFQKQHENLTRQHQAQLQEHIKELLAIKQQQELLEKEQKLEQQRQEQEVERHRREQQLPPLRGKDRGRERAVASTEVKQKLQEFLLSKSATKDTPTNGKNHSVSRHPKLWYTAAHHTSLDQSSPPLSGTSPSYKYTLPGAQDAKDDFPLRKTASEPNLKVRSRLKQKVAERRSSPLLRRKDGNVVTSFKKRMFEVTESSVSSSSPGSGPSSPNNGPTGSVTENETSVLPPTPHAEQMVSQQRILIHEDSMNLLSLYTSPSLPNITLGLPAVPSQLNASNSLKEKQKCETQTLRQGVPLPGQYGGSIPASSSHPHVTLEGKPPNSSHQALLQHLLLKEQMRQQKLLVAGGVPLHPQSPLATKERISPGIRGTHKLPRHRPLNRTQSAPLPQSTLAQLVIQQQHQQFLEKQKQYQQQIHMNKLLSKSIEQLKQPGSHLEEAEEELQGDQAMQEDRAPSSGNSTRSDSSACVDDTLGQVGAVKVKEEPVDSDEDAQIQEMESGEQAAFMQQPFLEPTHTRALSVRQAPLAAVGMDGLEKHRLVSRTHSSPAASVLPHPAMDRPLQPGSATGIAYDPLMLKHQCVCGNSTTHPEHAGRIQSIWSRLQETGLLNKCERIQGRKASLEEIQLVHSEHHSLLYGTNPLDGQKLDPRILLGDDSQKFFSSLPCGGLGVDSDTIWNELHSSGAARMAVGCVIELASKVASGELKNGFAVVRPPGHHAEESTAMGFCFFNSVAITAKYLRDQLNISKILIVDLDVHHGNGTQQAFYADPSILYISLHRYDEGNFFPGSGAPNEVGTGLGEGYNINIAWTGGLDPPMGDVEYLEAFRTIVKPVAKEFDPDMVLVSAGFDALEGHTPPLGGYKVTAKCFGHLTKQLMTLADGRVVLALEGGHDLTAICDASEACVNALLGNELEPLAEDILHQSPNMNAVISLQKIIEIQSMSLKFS
Chain of HDAC 6 (Q9UBN7 whole entry): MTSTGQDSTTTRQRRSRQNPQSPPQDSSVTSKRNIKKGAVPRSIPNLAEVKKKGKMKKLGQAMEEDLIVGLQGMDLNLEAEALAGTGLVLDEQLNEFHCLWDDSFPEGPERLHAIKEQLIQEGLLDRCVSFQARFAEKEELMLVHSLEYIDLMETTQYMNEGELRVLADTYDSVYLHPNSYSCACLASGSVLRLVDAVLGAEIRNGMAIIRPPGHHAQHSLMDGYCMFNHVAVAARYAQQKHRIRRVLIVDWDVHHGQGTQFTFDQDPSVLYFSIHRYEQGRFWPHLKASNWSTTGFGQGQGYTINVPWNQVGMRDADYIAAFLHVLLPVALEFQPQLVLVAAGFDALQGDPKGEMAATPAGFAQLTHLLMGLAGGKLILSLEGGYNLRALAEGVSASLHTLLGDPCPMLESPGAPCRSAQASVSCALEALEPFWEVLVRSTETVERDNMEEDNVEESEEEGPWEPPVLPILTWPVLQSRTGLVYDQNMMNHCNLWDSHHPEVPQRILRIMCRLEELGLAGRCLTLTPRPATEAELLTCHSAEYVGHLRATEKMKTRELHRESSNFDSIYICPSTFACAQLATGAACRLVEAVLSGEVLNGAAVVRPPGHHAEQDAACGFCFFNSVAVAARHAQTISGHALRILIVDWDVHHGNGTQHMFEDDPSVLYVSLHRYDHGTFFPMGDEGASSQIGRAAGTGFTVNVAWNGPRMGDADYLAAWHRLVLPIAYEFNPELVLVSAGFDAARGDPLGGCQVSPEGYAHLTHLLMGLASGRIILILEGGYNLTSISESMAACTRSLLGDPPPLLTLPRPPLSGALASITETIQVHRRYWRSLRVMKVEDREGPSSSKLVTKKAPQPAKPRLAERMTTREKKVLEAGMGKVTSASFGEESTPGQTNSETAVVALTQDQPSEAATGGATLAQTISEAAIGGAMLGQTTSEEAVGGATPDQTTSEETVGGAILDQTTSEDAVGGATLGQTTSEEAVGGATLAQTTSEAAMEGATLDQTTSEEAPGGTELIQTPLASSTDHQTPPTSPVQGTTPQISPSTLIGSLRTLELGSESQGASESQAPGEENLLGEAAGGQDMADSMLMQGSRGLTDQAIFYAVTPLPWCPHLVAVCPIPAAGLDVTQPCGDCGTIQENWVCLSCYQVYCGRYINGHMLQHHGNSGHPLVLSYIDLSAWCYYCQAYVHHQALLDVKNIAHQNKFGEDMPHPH
Chain of HDAC 3 (O15379 whole entry): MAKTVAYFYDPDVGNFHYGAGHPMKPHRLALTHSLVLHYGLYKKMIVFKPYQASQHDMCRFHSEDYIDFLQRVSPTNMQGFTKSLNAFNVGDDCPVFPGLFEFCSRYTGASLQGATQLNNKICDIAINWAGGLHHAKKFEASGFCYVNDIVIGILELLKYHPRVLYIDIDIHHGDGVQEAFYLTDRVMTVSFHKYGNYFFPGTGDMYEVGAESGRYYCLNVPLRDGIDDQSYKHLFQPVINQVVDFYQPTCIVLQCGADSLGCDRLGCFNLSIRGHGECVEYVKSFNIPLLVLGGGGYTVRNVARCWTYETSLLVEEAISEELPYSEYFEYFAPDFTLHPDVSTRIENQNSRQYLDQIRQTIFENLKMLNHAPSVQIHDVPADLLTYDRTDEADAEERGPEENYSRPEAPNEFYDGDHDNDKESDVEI
Chain of HDAC 3 (Q9Y618 395-489 partner limits assumed): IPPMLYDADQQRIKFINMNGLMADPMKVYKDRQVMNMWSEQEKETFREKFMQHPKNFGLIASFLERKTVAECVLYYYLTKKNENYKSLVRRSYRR

IC50 (HDAC 6): 47 nM | IC50 (HDAC 4): > 1000 nM | IC50 (HDAC 9): > 1000 nM | IC50 (HDAC 5): > 1000 nM | IC50 (HDAC 2): 2.4 nM | IC50 (HDAC 8): 49 nM | IC50 (HDAC 11): 2.3 nM | IC50 (HDAC 1): 1.2 nM | IC50 (HDAC 7): > 1000 nM | IC50 (HDAC 3): 2 nM | IC50 (HDAC 10): 2.8 nM
SMILES: CC(C)[C@@H]1NC(=O)C(C)(C)NC(=O)c2csc(n2)CNC(=O)C[C@@H](/C=C/CCS)OC1=O [OKI-006]
potency / selectivity for Class I HDAC (Class I HDAC): high potency for Class I HDAC inhibitors
